Results reported in ChEMBL document CHEMBL5154899, “Spiropyrimidinetrione DNA Gyrase Inhibitors with Potent and Selective Antituberculosis Activity” (J Med Chem, 2022).
Values after ≈ are worked out from the molar mass of the structure shown.

Assays:
[1] = test system: Mycobacterium tuberculosis; assay: microbe, parasite or virus in culture; conditions: H37Rv, 192 h
Description: Antibacterial activity against Mycobacterium tuberculosis H37Rv assessed as inhibition of bacterial growth measured after 8 days by Alamar blue reagent based broth microdilution method

Escherichia coli = assay: microbe, parasite or virus in culture; conditions: ATTC 25922, 192 h
Staphylococcus aureus = assay: microbe, parasite or virus in culture; conditions: ATTC 25923, 192 h
[2] = molecular target: DNA gyrase subunit A/DNA gyrase subunit B (Mycobacterium tuberculosis (strain ATCC 25618 / H37Rv), UniProt P9WG45+P9WG47); assay: Inhibition of Mycobacterium tuberculosis H37Rv DNA gyrase
Chain of DNA gyrase subunit A/DNA gyrase subunit B (P9WG45 whole entry): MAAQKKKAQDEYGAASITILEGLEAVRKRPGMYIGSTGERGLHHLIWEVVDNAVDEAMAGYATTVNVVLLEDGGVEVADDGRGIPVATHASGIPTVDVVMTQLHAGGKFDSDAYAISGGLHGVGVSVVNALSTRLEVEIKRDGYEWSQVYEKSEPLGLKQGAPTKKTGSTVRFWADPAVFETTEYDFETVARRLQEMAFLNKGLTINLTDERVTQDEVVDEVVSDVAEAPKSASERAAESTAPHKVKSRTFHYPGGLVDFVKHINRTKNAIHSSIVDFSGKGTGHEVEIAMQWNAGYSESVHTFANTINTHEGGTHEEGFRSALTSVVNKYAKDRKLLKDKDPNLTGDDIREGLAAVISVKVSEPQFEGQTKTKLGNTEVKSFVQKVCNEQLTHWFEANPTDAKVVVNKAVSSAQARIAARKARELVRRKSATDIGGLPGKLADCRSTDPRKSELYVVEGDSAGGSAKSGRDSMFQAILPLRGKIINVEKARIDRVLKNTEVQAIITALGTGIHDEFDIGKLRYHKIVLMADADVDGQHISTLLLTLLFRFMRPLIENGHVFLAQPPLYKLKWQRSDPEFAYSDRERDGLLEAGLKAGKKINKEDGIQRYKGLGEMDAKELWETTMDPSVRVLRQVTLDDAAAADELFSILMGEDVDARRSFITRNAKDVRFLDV
Chain of DNA gyrase subunit A/DNA gyrase subunit B (P9WG47 whole entry): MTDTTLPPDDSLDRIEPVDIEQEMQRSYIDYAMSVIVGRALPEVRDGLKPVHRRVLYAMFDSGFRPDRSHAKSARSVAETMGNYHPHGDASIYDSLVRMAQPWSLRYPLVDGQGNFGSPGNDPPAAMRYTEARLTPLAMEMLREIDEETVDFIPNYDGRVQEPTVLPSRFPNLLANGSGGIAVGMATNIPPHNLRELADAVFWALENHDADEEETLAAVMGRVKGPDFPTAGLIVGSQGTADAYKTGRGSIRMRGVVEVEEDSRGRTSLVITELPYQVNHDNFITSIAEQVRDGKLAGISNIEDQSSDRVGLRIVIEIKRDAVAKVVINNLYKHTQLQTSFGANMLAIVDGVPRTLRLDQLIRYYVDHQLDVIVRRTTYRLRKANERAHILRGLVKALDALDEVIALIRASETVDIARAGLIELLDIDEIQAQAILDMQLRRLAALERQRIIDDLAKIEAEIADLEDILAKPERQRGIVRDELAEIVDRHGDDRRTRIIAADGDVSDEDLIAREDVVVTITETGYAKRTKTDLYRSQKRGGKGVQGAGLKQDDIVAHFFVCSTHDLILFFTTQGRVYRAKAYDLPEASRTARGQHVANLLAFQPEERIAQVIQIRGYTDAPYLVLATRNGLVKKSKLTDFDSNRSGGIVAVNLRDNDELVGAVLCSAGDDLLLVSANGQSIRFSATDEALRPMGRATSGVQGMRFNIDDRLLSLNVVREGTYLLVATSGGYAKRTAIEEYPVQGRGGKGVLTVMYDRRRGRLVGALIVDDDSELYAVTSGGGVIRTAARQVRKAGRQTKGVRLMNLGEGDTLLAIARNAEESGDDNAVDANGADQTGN

[3] = test system: Mycobacterium tuberculosis; assay: microbe, parasite or virus in culture; conditions: H37Rv, 264 h
Description: Antibacterial activity against Mycobacterium tuberculosis H37Rv gyrA -FDASTetON-1 hypomorph assessed as inhibition of bacterial growth incubated for 11 days

[4] = test system: Mycobacterium tuberculosis; assay: microbe, parasite or virus in culture; conditions: H37Rv, 264 h; remark: listed apart in the source
Description: Antibacterial activity against wild type Mycobacterium tuberculosis H37Rv assessed as inhibition of bacterial growth incubated for 11 days

DNA gyrase = DNA gyrase (Staphylococcus aureus, UniProt P0A0K8+P20831)
Chain of DNA gyrase (P0A0K8 whole entry): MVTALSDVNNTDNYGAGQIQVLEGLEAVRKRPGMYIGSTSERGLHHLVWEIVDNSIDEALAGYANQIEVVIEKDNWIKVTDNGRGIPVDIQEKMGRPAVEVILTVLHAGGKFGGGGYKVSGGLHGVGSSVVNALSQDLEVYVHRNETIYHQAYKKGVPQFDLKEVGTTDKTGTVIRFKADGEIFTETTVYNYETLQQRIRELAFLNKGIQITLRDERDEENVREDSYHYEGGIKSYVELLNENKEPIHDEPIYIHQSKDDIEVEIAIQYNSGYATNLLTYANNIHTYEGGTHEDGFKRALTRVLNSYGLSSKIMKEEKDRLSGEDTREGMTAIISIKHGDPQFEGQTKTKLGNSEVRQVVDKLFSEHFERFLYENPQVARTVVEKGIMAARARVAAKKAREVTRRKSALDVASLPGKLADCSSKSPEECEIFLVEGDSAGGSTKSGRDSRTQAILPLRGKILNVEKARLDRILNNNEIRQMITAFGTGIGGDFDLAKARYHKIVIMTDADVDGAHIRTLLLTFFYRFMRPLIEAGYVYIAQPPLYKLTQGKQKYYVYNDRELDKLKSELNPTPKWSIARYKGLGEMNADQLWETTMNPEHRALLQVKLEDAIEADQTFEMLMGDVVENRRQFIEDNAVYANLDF
Chain of DNA gyrase (P20831 whole entry): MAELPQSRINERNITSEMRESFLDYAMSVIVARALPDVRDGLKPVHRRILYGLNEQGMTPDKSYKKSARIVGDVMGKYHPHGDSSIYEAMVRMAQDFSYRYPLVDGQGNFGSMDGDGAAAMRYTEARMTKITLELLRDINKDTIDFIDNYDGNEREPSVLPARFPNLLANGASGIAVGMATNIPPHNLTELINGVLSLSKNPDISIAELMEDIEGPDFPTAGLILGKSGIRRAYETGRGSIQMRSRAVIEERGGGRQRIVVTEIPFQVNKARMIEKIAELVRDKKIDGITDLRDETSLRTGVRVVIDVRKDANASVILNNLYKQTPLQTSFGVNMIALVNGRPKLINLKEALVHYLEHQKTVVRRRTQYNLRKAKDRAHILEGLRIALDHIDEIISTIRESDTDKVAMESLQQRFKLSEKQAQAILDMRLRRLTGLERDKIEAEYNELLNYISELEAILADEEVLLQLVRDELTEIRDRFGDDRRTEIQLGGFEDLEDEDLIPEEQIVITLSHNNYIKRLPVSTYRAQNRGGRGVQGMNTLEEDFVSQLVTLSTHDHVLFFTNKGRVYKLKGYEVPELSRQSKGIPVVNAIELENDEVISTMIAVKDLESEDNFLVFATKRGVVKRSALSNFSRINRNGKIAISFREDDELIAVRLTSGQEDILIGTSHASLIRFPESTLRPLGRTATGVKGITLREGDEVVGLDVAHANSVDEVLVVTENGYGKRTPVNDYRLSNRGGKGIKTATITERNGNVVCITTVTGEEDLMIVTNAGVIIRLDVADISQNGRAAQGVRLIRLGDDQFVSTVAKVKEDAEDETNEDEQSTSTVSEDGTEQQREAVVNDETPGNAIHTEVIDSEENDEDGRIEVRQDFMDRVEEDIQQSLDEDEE

Structure (SMILES) | MIC [1] [µM] | MIC (Escherichia coli) [µM] | MIC (Staphylococcus aureus) [µM] | also measured
Cc1nnc(-c2noc3c(F)c4c(cc23)CC2(C(=O)NC(=O)NC2=O)[C@H]2[C@H](C)O[C@H](C)CN42)o1 | 0.45 (≈ 0.212 µg/mL) | 31 (≈ 14.6 µg/mL) | – | –
C[C@@H]1CN2c3c(cc4c(N5CC[C@H](N)C5)noc4c3F)CC3(C(=O)NC(=O)NC3=O)[C@H]2[C@H](C)O1 | 63 (≈ 29.8 µg/mL) | 125 (≈ 59.1 µg/mL) | 125 (≈ 59.1 µg/mL) | IC50 [2]: 34 µM
C[C@@H]1CN2c3c(cc4c(OC[C@@H]5CNC(=O)C5)noc4c3F)CC3(C(=O)NC(=O)NC3=O)[C@H]2[C@H](C)O1 | 2 (≈ 1 µg/mL) | > 250 | > 125 | –
C[C@@H]1CN2c3c(cc4c(OC[C@H]5CCC(=O)N5)noc4c3F)CC3(C(=O)NC(=O)NC3=O)[C@H]2[C@H](C)O1 | > 125 | – | – | –
C[C@@H]1CN2c3c(cc4c(N5CC[C@@H](O)C5)noc4c3F)CC3(C(=O)NC(=O)NC3=O)[C@H]2[C@H](C)O1 | 3.9 (≈ 1.85 µg/mL) | – | – | –
C[C@@H]1CN2c3c(cc4c(N5CC[C@H](C#N)C5)noc4c3F)CC3(C(=O)NC(=O)NC3=O)[C@H]2[C@H](C)O1 | 4 (≈ 1.93 µg/mL) | 31 (≈ 15 µg/mL) | > 125 | IC50 [2]: 10 µM
C[C@@H]1CN2c3c(cc4c(OC[C@H]5COC(=O)N5)noc4c3F)CC3(C(=O)NC(=O)NC3=O)[C@H]2[C@H](C)O1 | – | – | 63 (≈ 31.7 µg/mL) | –
C[C@@H]1CN2c3c(cc4c(N5C[C@H](O)[C@@H](O)C5)noc4c3F)CC3(C(=O)NC(=O)NC3=O)[C@H]2[C@H](C)O1 | 31 (≈ 15.2 µg/mL) | > 125 | – | –
C[C@@H]1CN2c3c(cc4c(N5CCC[C@H](O)C5)noc4c3F)CC3(C(=O)NC(=O)NC3=O)[C@H]2[C@H](C)O1 | 16 (≈ 7.8 µg/mL) | – | 94 (≈ 45.8 µg/mL) | –
C[C@@H]1CN2c3c(cc4c(N5C(=O)OC[C@@H]5C)noc4c3F)CC3(C(=O)NC(=O)NC3=O)[C@H]2[C@H](C)O1 [ZOLIFLODACIN] | 0.35 (≈ 0.171 µg/mL) | 1.4 (≈ 0.682 µg/mL) | – | solubility kinetic at 20 h, 200 µM (physchem): 160 µM (≈ 78 µg/mL); MIC50 [3]: 4.6 µM (≈ 2.24 µg/mL); MIC99 [3]: 12 µM (≈ 5.85 µg/mL); MIC50 [4]: 20 µM (≈ 9.75 µg/mL); MIC99 [4]: 44 µM (≈ 21.4 µg/mL)
C[C@@H]1CN2c3c(cc4c(OC[C@@H]5COC(=O)N5)noc4c3F)CC3(C(=O)NC(=O)NC3=O)[C@H]2[C@H](C)O1 | 2 (≈ 1.01 µg/mL) | > 250 | – | –
CO[C@H]1/C=C/O[C@@]2(C)Oc3c(C)c(O)c4c(O)c(c(/C=N/N5CCN(C)CC5)c(O)c4c3C2=O)NC(=O)/C(C)=C\C=C\[C@H](C)[C@H](O)[C@@H](C)[C@@H](O)[C@@H](C)[C@H](OC(C)=O)[C@@H]1C [RIFAMPIN] | – | – | – | MIC50 [3]: 0.021 µM (≈ 0.0173 µg/mL); MIC99 [3]: 0.037 µM (≈ 0.0304 µg/mL); MIC50 [4]: 0.24 µM (≈ 0.198 µg/mL); MIC99 [4]: 0.041 µM (≈ 0.0337 µg/mL)
Cc1nnc(-c2noc3c(F)c4c(cc23)CC2(C(=O)NC(=O)NC2=O)[C@H]2[C@H](C)[C@@H](O)[C@H](C)CN42)o1 | 16 (≈ 7.75 µg/mL) | > 250 | > 250 | –
C[C@@H]1CN2c3c(cc4c(N5CCC[C@@H](O)C5)noc4c3F)CC3(C(=O)NC(=O)NC3=O)[C@H]2[C@H](C)O1 | 10 (≈ 4.87 µg/mL) | > 125 | – | –
C[C@@H]1CN2c3c(cc4c(N5CC[C@@](C)(O)C5)noc4c3F)CC3(C(=O)NC(=O)NC3=O)[C@H]2[C@H](C)O1 | > 250 | > 250 | > 250 | –
C[C@@H]1CN2c3c(cc4c(-n5cncn5)noc4c3F)CC3(C(=O)NC(=O)NC3=O)[C@H]2[C@H](C)O1 | 0.24 (≈ 0.109 µg/mL) | 2 (≈ 0.911 µg/mL) | – | IC50 (DNA gyrase): 1.7 µM; IC50 [2]: 18 µM; MIC50 [3]: 0.26 µM (≈ 0.118 µg/mL); MIC99 [3]: 0.65 µM (≈ 0.296 µg/mL); MIC50 [4]: 1.8 µM (≈ 0.82 µg/mL); MIC99 [4]: 3.8 µM (≈ 1.73 µg/mL)
C[C@@H]1CN2c3c(cc4c(N5C(=O)OC[C@@H]5C)noc4c3F)CC3(C(=O)NC(=O)NC3=O)[C@H]2[C@H](C)N1CC#N | > 125 | > 125 | > 125 | –
C[C@@H]1CN2c3c(cc4c(OCC[C@@H]5CCC(=O)N5)noc4c3F)CC3(C(=O)NC(=O)NC3=O)[C@H]2[C@H](C)O1 | 3.9 (≈ 2.01 µg/mL) | > 125 | 31 (≈ 16 µg/mL) | –
C[C@@H]1CN2c3c(cc4c(OC[C@H]5CCC(=O)O5)noc4c3F)CC3(C(=O)NC(=O)NC3=O)[C@H]2[C@H](C)O1 | 3.9 (≈ 1.96 µg/mL) | > 250 | > 250 | –
Cc1nnc(-c2noc3c(F)c4c(cc23)CC2(C(=O)NC(=O)NC2=O)[C@H]2[C@H](C)N(C#N)[C@H](C)CN42)o1 | 1.5 (≈ 0.742 µg/mL) | > 125 | > 125 | –
C[C@@H]1CN2c3c(cc4c(N5C[C@@H](O)[C@H](O)C5)noc4c3F)CC3(C(=O)NC(=O)NC3=O)[C@H]2[C@H](C)O1 | 5.9 (≈ 2.89 µg/mL) | – | > 125 | IC50 (DNA gyrase): 6.6 µM; IC50 [2]: 16 µM; MIC50 [3]: 1.24 µM (≈ 0.607 µg/mL); MIC99 [3]: 3.2 µM (≈ 1.57 µg/mL); MIC50 [4]: 3.65 µM (≈ 1.79 µg/mL); MIC99 [4]: 6.75 µM (≈ 3.3 µg/mL)
C[C@@H]1CN2c3c(cc4c(OC[C@@H]5CCC(=O)N5)noc4c3F)CC3(C(=O)NC(=O)NC3=O)[C@H]2[C@H](C)O1 | 1 (≈ 0.501 µg/mL) | > 125 | > 125 | IC50 [2]: 2.6 µM

Structure (SMILES) | MIC [1] [µM] | MIC (Escherichia coli) [µM] | MIC (Staphylococcus aureus) [µM] | also measured
C[C@@H]1CN2c3c(cc4c(N5CC[C@H](F)C5)noc4c3F)CC3(C(=O)NC(=O)NC3=O)[C@H]2[C@H](C)O1 | 4 (≈ 1.9 µg/mL) | 31 (≈ 14.7 µg/mL) | 2 (≈ 0.951 µg/mL) | –
C[C@H]1C[C@@H](C)[C@H]2N(C1)c1c(cc3c(OC[C@@H]4CCC(=O)N4)noc3c1F)CC21C(=O)NC(=O)NC1=O | 16 (≈ 7.99 µg/mL) | 63 (≈ 31.5 µg/mL) | 7.8 (≈ 3.9 µg/mL) | –
Cc1nnc(COc2noc3c(F)c4c(cc23)CC2(C(=O)NC(=O)NC2=O)[C@H]2[C@H](C)O[C@H](C)CN42)o1 | 63 (≈ 31.5 µg/mL) | > 125 | > 125 | –
C[C@@H]1CN2c3c(cc4c(N5CC[C@H](O)C5)noc4c3F)CC3(C(=O)NC(=O)NC3=O)[C@H]2[C@H](C)O1 | 5.9 (≈ 2.79 µg/mL) | > 125 | 64 (≈ 30.3 µg/mL) | IC50 (DNA gyrase): 6.9 µM; IC50 [2]: 20 µM; MIC50 [3]: 0.92 µM (≈ 0.436 µg/mL); MIC99 [3]: 2.4 µM (≈ 1.14 µg/mL); MIC50 [4]: 3.3 µM (≈ 1.56 µg/mL); MIC99 [4]: 5.9 µM (≈ 2.79 µg/mL)
CO[C@H]1CCN(c2noc3c(F)c4c(cc23)CC2(C(=O)NC(=O)NC2=O)[C@H]2[C@H](C)O[C@H](C)CN42)C1 | 31 (≈ 15.1 µg/mL) | > 125 | > 125 | IC50 [2]: 77 µM
C[C@@H]1CN2c3c(cc4c(OC[C@H]5CNC(=O)C5)noc4c3F)CC3(C(=O)NC(=O)NC3=O)[C@H]2[C@H](C)O1 | – | 63 (≈ 31.6 µg/mL) | 31 (≈ 15.5 µg/mL) | –
COc1c(N2C[C@@H]3CCCN[C@@H]3C2)c(F)cc2c(=O)c(C(=O)O)cn(C3CC3)c12 [MOXIFLOXACIN] | 0.17 (≈ 0.0682 µg/mL) | – | – | MIC50 [3]: 0.041 µM (≈ 0.0165 µg/mL); MIC99 [3]: 0.07 µM (≈ 0.0281 µg/mL); MIC50 [4]: 0.12 µM (≈ 0.0482 µg/mL); MIC99 [4]: 0.19 µM (≈ 0.0763 µg/mL)
C[C@@H]1CN2c3c(cc4c(N5C(=O)OC[C@@H]5C)noc4c3F)CC3(C(=O)NC(=O)NC3=O)[C@H]2[C@H](C)N1C#N | 3.9 (≈ 1.99 µg/mL) | 3.9 (≈ 1.99 µg/mL) | 1 (≈ 0.511 µg/mL) | –
C[C@@H]1CN2c3c(cc4c(OC[C@@H]5CCC(=O)N5)noc4c3F)CC3(C(=O)NC(=O)NC3=O)[C@H]2[C@H](C)N1C#N | 0.49 (≈ 0.257 µg/mL) | > 125 | > 125 | –
C[C@@H]1CN2c3c(cc4c(N5C(=O)OC[C@@H]5C)noc4c3F)CC3(C(=O)NC(=O)NC3=O)[C@H]2[C@H](C)N1 | > 125 | 31 (≈ 15.1 µg/mL) | 63 (≈ 30.6 µg/mL) | –
C[C@@H]1CN2c3c(cc4c(OC[C@@H]5CCC(=O)N5C)noc4c3F)CC3(C(=O)NC(=O)NC3=O)[C@H]2[C@H](C)O1 | 3.9 (≈ 2.01 µg/mL) | 63 (≈ 32.5 µg/mL) | 63 (≈ 32.5 µg/mL) | –
C[C@@H]1CN2c3c(cc4c(N5CC[C@H](C(=O)O)C5)noc4c3F)CC3(C(=O)NC(=O)NC3=O)[C@H]2[C@H](C)O1 | > 125 | > 125 | > 125 | –
C[C@@H]1CN2c3c(cc4c(N5CC[C@H](CO)C5)noc4c3F)CC3(C(=O)NC(=O)NC3=O)[C@H]2[C@H](C)O1 | 16 (≈ 7.8 µg/mL) | > 125 | > 125 | IC50 [2]: 18 µM
CN[C@H]1CCN(c2noc3c(F)c4c(cc23)CC2(C(=O)NC(=O)NC2=O)[C@H]2[C@H](C)O[C@H](C)CN42)C1 | 63 (≈ 30.6 µg/mL) | 125 (≈ 60.8 µg/mL) | 125 (≈ 60.8 µg/mL) | –
C[C@@H]1CN2c3c(cc4c(N5C(=O)OC[C@@H]5C)noc4c3F)CC3(C(=O)NC(=O)NC3=O)[C@H]2[C@H](C)N1O | > 125 | > 125 | > 125 | –
C[C@@H]1CN2c3c(cc4c(N5CC[C@H](O)C5)noc4c3F)CC3(C(=O)NC(=O)NC3=O)[C@H]2[C@H](C)N1C#N | 7.8 (≈ 3.88 µg/mL) | > 125 | – | IC50 (DNA gyrase): 3.1 µM; MIC50 [3]: 1.75 µM (≈ 0.871 µg/mL); MIC99 [3]: 5.05 µM (≈ 2.51 µg/mL); MIC50 [4]: 5.35 µM (≈ 2.66 µg/mL); MIC99 [4]: 10.3 µM (≈ 5.12 µg/mL)
C[C@@H]1CN2c3c(cc4c(-n5cncn5)noc4c3F)CC3(C(=O)NC(=O)NC3=O)[C@H]2[C@H](C)N1C#N | 0.98 (≈ 0.47 µg/mL) | 63 (≈ 30.2 µg/mL) | 16 (≈ 7.67 µg/mL) | –
CC(=O)N1[C@H](C)CN2c3c(cc4c(N5C(=O)OC[C@@H]5C)noc4c3F)CC3(C(=O)NC(=O)NC3=O)[C@H]2[C@@H]1C | > 125 | > 125 | > 125 | –
C[C@@H]1CN2c3c(cc4c(N5C[C@@H](O)[C@@H](O)C5)noc4c3F)CC3(C(=O)NC(=O)NC3=O)[C@H]2[C@H](C)O1 | 16 (≈ 7.83 µg/mL) | – | – | –
C[C@@H]1CN2c3c(cc4c(N5CC[C@@H](O)C5)noc4c3F)CC3(C(=O)NC(=O)NC3=O)[C@H]2[C@H](C)N1C#N | – | – | > 125 | –
C[C@@H]1CN2c3c(cc4c(OC[C@@H]5CCC(=O)O5)noc4c3F)CC3(C(=O)NC(=O)NC3=O)[C@H]2[C@H](C)O1 | 2 (≈ 1 µg/mL) | > 125 | 3.9 (≈ 1.96 µg/mL) | –
